Measurements as given in PMC6317078 (Science (New York, N.Y.), 2018).

Target: T1, zfDHHC15 (Danio rerio, UniProt F1QXD3, C153S)
T1 sequence (F1QXD3 1-332 C153S): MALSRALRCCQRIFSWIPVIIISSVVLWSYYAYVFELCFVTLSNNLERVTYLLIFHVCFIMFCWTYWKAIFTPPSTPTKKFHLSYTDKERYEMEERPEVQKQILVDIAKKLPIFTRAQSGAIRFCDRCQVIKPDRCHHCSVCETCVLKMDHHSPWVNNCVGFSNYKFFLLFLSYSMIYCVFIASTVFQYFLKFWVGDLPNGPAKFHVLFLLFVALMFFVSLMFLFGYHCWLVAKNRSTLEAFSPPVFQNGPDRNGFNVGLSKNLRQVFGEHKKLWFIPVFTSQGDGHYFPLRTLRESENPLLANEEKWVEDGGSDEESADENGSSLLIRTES
Experiment: X-ray crystal structure
Details: 2.54 Å; acyl-binding cavity; ligand modelled into density, not added

SMILES: CCCCCCCCCCCCCCCC(=O)O [palmitic acid]
- X-ray crystal structure: continuous density in this cavity, which we modeled as a palmitic acid
